Our source for the Kd values is US20260374773A1, “MULTI-CYCLIC IRAK AND FLT3 INHIBITING COMPOUNDS AND USES THEREOF” (CHILDREN'S HOSPITAL MEDICAL CENTER, priority 2022, published 2026).

SMILES strings stand for the structures. Where only a bound is given, the exact number is not on record here.

One experiment concerns the target T1, FLT3 D835V (Homo sapiens, UniProt P36888, D835V).
T1 sequence (P36888 27-993 D835V): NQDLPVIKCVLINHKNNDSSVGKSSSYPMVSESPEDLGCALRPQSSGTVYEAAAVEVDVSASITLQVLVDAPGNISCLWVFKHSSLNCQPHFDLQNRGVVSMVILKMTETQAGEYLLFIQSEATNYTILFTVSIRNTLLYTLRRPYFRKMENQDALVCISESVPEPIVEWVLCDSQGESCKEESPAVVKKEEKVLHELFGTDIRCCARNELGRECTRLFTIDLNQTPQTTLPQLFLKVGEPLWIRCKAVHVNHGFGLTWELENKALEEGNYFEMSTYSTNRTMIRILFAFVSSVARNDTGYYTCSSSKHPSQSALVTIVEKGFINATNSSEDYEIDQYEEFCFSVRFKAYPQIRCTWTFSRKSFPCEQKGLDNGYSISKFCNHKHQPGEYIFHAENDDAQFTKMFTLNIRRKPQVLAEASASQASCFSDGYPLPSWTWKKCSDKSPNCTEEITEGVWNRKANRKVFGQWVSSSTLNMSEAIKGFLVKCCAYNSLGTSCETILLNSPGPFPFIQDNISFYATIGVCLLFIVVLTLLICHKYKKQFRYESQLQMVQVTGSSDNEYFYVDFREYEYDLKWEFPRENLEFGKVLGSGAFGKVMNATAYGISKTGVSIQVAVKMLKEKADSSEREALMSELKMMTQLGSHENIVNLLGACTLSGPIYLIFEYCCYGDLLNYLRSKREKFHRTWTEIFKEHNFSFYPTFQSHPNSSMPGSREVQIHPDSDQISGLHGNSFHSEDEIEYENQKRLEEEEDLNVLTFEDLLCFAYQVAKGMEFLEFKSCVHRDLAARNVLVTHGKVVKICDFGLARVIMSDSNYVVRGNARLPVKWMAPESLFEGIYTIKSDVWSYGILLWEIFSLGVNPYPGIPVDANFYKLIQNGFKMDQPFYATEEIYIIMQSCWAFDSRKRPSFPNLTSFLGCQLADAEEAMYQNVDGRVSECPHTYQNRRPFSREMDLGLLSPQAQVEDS
Kind of experiment: DiscoverX KINOMEscan active site-directed competition binding, FLT3 D835V. The note with it: Table 12; no ATP.
Excerpt: (§1) Kinase binding data were obtained for various exemplary compounds prepared according to Examples 1-8 using the DiscoverX KINOMEscan® active site-directed competition binding site-directed assay protocol described below. […] As a result, the data report thermodynamic interaction affinities (Kd values), rather than IC50 values that are dependent on ATP concentrations. The assay uses a DNA-tagged version of the protein kinase, and an immobilized ligand bound to a solid support. Compounds that directly or indirectly prevent kinase binding to the immobilized ligand reduce the amount of kinase captured on the solid support, which is detected using an ultra-sensitive qPCR method. Affinity constants reported from the assay have been reported to be independent of the immobilized ligand used that is coupled to the solid support (See supplemental information in Fabian, M. A. et. al., (2005) Nat. Biotechnol. 23, 329-336; Wodicka, L. M. et. al., (2010) Chem. Biol. 17, 1241-1249.)
Kinase-tagged T7 phage strains were prepared in an E. coli host derived from the BL21 strain. E. coli were grown to log-phase and infected with T7 phage and incubated with shaking at 32 °C until lysis. The lysates were centrifuged and filtered to remove cell debris. The remaining kinases were produced in HEK-293 cells and subsequently tagged with DNA for qPCR detection. Streptavidin-coated magnetic beads were treated with biotinylated small molecule ligands for 30 minutes at room temperature to generate affinity resins for kinase assays. The liganded beads were blocked with excess biotin and washed with blocking buffer (SeaBlock (Pierce), 1% BSA, 0.05% Tween 20, 1 mM DTT) to remove unbound ligand and to reduce non-specific binding. […] Test compounds were prepared as 111x stocks in 100% DMSO. Kds were determined using an 11-point 3-fold compound dilution series with three DMSO control points. All compounds for Kd measurements are distributed by acoustic transfer (non-contact dispensing) in 100% DMSO. The compounds were then diluted directly into the assays such that the final concentration of DMSO was 0.9%. All reactions were performed in polypropylene 384-well plates. Each was a final volume of 0.02 mL. The assay plates were incubated at room temperature with shaking for 1 hour and the affinity beads were washed with wash buffer (1×PBS, 0.05% Tween 20). The beads were then re-suspended in elution buffer (1×PBS, 0.05% Tween 20, 0.5 μM nonbiotinylated affinity ligand) and incubated at room temperature with shaking for 30 minutes. The kinase concentration in the eluates was measured by qPCR. Binding constants (Kds) were calculated with a standard dose-response curve using the Hill equation. The Hill Slope was set to −1. Curves were fitted using a non-linear least square fit with the Levenberg-Marquardt algorithm.
as §1, with “9-12” for “1-8”
Kinase-tagged T7 phage strains were prepared in an E. coli host derived from the BL21 strain. […]
One may read the Kd as the free concentration of one partner at which half of the binding sites on the other are occupied at equilibrium, for simple one-to-one binding. Low readings indicate higher affinity, high ones lower affinity. Consider `COc1cn2ncc(-c3nc(N[C@H]4CNCC[C@@H]4F)c(C#N)cc3F)c2nc1C1CC1` [Compound 7, 6-(5-cyclopropyl-6-methoxypyrazolo[1,5-a]pyrimidin-3-yl)-5-fluoro-2-(((3S,4S)-4-fluoropiperidin-3-yl)amino)nicotinonitrile], for which the Kd was under 0.17 nM.
On the same count and under the same terms, then `COc1cn2ncc(-c3nc(N[C@H]4CNCC[C@@H]4F)c(C#N)cc3F)c2nc1C(C)(C)O` [Compound 10, 5-fluoro-2-(((3S,4S)-4-fluoropiperidin-3-yl)amino)-6-(5-(2-hydroxypropan-2-yl)-6-methoxypyrazolo[1,5-a]pyrimidin-3-yl)nicotinonitrile], with under 0.17 nM.
`COc1cn2ncc(-c3nc(N[C@H]4CNCC[C@@H]4F)c(F)cc3F)c2nc1C(C)(C)O` [Compound 13, 2-(3-(3,5-difluoro-6-(((3S,4S)-4-fluoropiperidin-3-yl)amino)pyridin-2-yl)-6-methoxypyrazolo[1,5-a]pyrimidin-5-yl)propan-2-ol] returned a Kd of under 0.17 nM.

The experiment is the same for the next values; noted with them: Table 18; no ATP.
As to `COc1cn2ncc(-c3nc(N[C@H]4CNCC[C@@H]4F)ncc3F)c2nc1C(C)(C)O` [Compound 6a, 2-(3-(5-fluoro-2-(((3S,4S)-4-fluoropiperidin-3-yl)amino)pyrimidin-4-yl)-6-methoxypyrazolo[1,5-a]pyrimidin-5-yl)propan-2-ol], the Kd is under 0.17 nM.
The same measure, in the same setting: then `COc1cn2ncc(-c3ccnc(N[C@H]4CNCC[C@@H]4F)n3)c2nc1C1CC1` [Compound 7a, 4-(5-cyclopropyl-6-methoxypyrazolo[1,5-a]pyrimidin-3-yl)-N-((3S,4S)-4-fluoropiperidin-3-yl)pyrimidin-2-amine], with 0.48 nM; and `COc1cn2ncc(-c3cncc(N[C@H]4CNCC[C@@H]4F)n3)c2nc1C1CC1` [Compound 12a, 6-(5-cyclopropyl-6-methoxypyrazolo[1,5-a]pyrimidin-3-yl)-N-((3S,4S)-4-fluoropiperidin-3-yl)pyrazin-2-amine], with under 0.17 nM.
The same measure, in the same setting: the same measure for `COc1cn2ncc(-c3nc(N[C@@H]4CCCNC4)ncc3F)c2nc1C1CC1` [Compound 14a, (R)-4-(5-cyclopropyl-6-methoxypyrazolo[1,5-a]pyrimidin-3-yl)-5-fluoro-N-(piperidin-3-yl)pyrimidin-2-amine]: under 0.17 nM.
The same measure, in the same setting: the same measure for `COc1cn2ncc(-c3nc(N[C@H]4CNCC[C@@H]4F)ncc3F)c2nc1C1CC1` [Compound 15a, 4-(5-cyclopropyl-6-methoxypyrazolo[1,5-a]pyrimidin-3-yl)-5-fluoro-N-((3S,4S)-4-fluoropiperidin-3-yl)pyrimidin-2-amine]: 0.28 nM.
